Assay results: patent US9695155B2, “Herbicidal substituted pyrimidinyloxy benzene compounds” (E. I. DU PONT DE NEMOURS AND COMPANY, priority 2013, dated 2017)

Legend:
blackgrass = assay: Test C postemergence; type: in vivo, Alopecurus myosuroides
Method in brief: (§1)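 Plants were kept under greenhouse conditions for 13–15 days following spray. Pre-emergent application went to soil (loam–sand), post-emergent to foliage at 1–4 leaves. Evaluation: visual, percent control against untreated checks.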

lambsquarters = assay: Test C postemergence; type: in vivo, Chenopodium album
Method in brief: as §1

galium [1] = assay: Test C postemergence; type: in vivo, Galium aparine
Method in brief: as §1

morningglory = assay: Test C preemergence; type: in vivo, Ipomoea coccinea; conditions: for Morningglory plant response rating: preemergence, scale 0 (no effect) to 100 (complete control)
Method in brief: as §1

ragweed = assay: Test C postemergence; type: in vivo, Ambrosia elatior
Method in brief: as §1

galium [2] = assay: Test C preemergence; type: in vivo, Galium aparine; conditions: for Galium plant response rating: preemergence, scale 0 (no effect) to 100 (complete control)
Method in brief: as §1

barnyardgrass [3] = assay: Test A postemergence; type: in vivo, Echinochloa crus-galli; conditions: 0 to 100 scale where 0 is no effect and 100 is complete control
Method in brief: (§2)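 Scoring: eye-based comparison with untreated controls, 0 for no effect through 100 for complete control, at about day 10. Treatments: directed soil spray preemergence; foliar spray postemergence on 2–10 cm plants at the one- to two-leaf stage. Medium: loam soil with sand.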

giant foxtail = assay: Test C postemergence; type: in vivo, Setaria faberii
Method in brief: as §1

johnsongrass = assay: Test C preemergence; type: in vivo, Sorghum halepense; conditions: for Johnsongrass plant response rating: preemergence, scale 0 (no effect) to 100 (complete control)
Method in brief: as §1

wheat = assay: Test A postemergence; type: in vivo, Triticum aestivum; conditions: 0 to 100 scale where 0 is no effect and 100 is complete control
Method in brief: as §2

corn = assay: Test A preemergence; type: in vivo, Zea mays
Method in brief: as §2

barnyardgrass [4] = assay: Test A preemergence; type: in vivo, Echinochloa crus-galli
Method in brief: as §2

Italian ryegrass = assay: Test C preemergence; type: in vivo, Lolium multiflorum; conditions: for Ryegrass, Italian plant response rating: preemergence, scale 0 (no effect) to 100 (complete control)
Method in brief: as §1

velvetleaf = assay: Test C postemergence; type: in vivo, Abutilon theophrasti
Method in brief: as §1

soybean = assay: Test C postemergence; type: in vivo, Glycine max
Method in brief: as §1

[5] = 31 g ai/ha, postemergence, visual rating, scale 0 to 100 (0 no effect, 100 complete control), 13 to 15 days
[6] = 125 g ai/ha, postemergence, visual rating, scale 0 to 100 (0 no effect, 100 complete control)
[7] = Postemergence, 62 g ai/ha, scale 0 to 100 (0 no effect, 100 complete control), 13 to 15 days
[8] = Preemergence, 62 g ai/ha, scale 0 to 100, 0 no effect, 100 complete control
[9] = 500 g ai/ha, 0 to 100 scale where 0 is no effect and 100 is complete control

N#Cc1cnn(-c2c(C#N)cccc2Oc2ncc(Cl)cn2)c1 [Compound 200]
Blackgrass plant response rating (blackgrass; [5]): 5 | Plant response rating, Blackgrass (blackgrass; [6]): 10 | Plant response rating (0 to 100), Blackgrass (blackgrass; 250 g ai/ha, postemergence): 35 | Plant response rating, Blackgrass (blackgrass; [7]): 5 | Lambsquarters plant response rating (lambsquarters; [5]): 80 | Plant response rating, Lambsquarters (lambsquarters; [6]): 85 | Plant response rating (0 to 100), Lambsquarters (lambsquarters; 250 g ai/ha, postemergence): 95 | Plant response rating, Lambsquarters (lambsquarters; [7]): 80 | Galium plant response rating (galium [1]; [5]): 60 | Plant response rating, Galium (galium [1]; [6]): 85 | Plant response rating (0 to 100), Galium (galium [1]; 250 g ai/ha, postemergence): 95 | Plant response rating, Galium (galium [1]; [7]): 65 | Morningglory plant response rating (morningglory; 125 g ai/ha): 98 | Morningglory plant response rating (morningglory; 250 g ai/ha): 98 | Plant response rating, Morningglory (morningglory; [8]): 95 | Ragweed plant response rating (ragweed; [5]): 25 | Plant response rating, Ragweed (ragweed; [6]): 55 | Plant response rating (0 to 100), Ragweed (ragweed; 250 g ai/ha, postemergence): 85 | Plant response rating, Ragweed (ragweed; [7]): 40 | Galium plant response rating (galium [2]; 125 g ai/ha): 100 | Galium plant response rating (galium [2]; 250 g ai/ha): 100 | Plant response rating, Galium (galium [2]; [8]): 100 | Barnyardgrass plant response rating (barnyardgrass [3]; 125 g ai/ha): 80 | Plant response rating, Barnyardgrass (barnyardgrass [3]; 500 g ai/ha): 90 | Foxtail, Giant plant response rating (giant foxtail; [5]): 5 | Plant response rating, Foxtail, Giant (giant foxtail; [6]): 5 | Plant response rating (0 to 100), Foxtail, Giant (giant foxtail; 250 g ai/ha, postemergence): 15 | Plant response rating, Foxtail, Giant (giant foxtail; [7]): 5 | Johnsongrass plant response rating (johnsongrass; 125 g ai/ha): 98 | Johnsongrass plant response rating (johnsongrass; 250 g ai/ha): 98 | Plant response rating, Johnsongrass (johnsongrass; [8]): 98 | Wheat plant response rating (wheat; 125 g ai/ha): 40 | Plant response rating, Wheat (wheat; 500 g ai/ha): 60 | Corn plant response rating (0 to 100 scale) (corn; 125 g ai/ha): 40 | Corn plant response rating (corn; [9]): 50 | Barnyardgrass plant response rating (0 to 100 scale, 0 is no effect, 100 is complete control) (barnyardgrass [4]; 125 g ai/ha): 80 | Barnyardgrass plant response rating (barnyardgrass [4]; [9]): 90 | Ryegrass, Italian plant response rating (Italian ryegrass; 125 g ai/ha): 85 | Ryegrass, Italian plant response rating (Italian ryegrass; 250 g ai/ha): 95 | Plant response rating, Ryegrass, Italian (Italian ryegrass; [8]): 70 | Velvetleaf plant response rating (velvetleaf; [5]): 20 | Plant response rating, Velvetleaf (velvetleaf; [6]): 75 | Plant response rating (0 to 100), Velvetleaf (velvetleaf; 250 g ai/ha, postemergence): 70 | Plant response rating, Velvetleaf (velvetleaf; [7]): 50 | Soybean plant response rating (soybean; [5]): 90 | Plant response rating, Soybean (soybean; [6]): 95 | Plant response rating (0 to 100), Soybean (soybean; 250 g ai/ha, postemergence): 90 | Plant response rating, Soybean (soybean; [7]): 95
